In patent publication US20220411388A1, “SUBSTITUTED IMIDAZOLE CARBOXAMIDES AND THEIR USE IN THE TREATMENT OF MEDICAL DISORDERS” (Bial - R&D Investments, S.A., priority 2019, published 2022):
Converted amounts (≈) assume the structure as drawn. Read-outs that look alike come from different tables or passages of the source.

Tests used:
[1] = Compound solubility in water; assay type: physicochemical
[2] = target: T1, acid ceramidase (hACR) (Homo sapiens, UniProt Q13510); experiment: Acid ceramidase inhibition, biochemical fluorescent assay with cell lysates overexpressing acid ceramidase (substrate Rbm14-12); conditions: cell lysate, 1 hr preincubation at RT, pH 4.5, Rbm14-12 6.3 μM
T1 construct: expressed in transfected cells
T1 sequence (Q13510 22-395): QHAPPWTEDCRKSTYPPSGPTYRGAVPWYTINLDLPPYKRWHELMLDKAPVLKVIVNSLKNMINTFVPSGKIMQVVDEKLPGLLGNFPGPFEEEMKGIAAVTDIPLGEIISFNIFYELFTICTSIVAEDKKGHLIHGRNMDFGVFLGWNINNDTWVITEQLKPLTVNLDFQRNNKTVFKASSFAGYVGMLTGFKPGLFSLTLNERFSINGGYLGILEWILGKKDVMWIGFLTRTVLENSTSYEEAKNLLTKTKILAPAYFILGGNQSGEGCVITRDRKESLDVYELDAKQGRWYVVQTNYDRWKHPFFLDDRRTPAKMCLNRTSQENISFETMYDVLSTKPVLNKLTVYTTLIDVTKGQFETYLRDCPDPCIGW
Experimental: The ability of exemplary compounds to inhibit acid ceramidase was measured.
Cell lysates overexpressing acid ceramidase were used as the enzyme source for compound potency determination in a biochemical fluorescent assay. Briefly, compounds were preincubated with 10 μg protein of cell lysates in a dose-response manner for 1 hr at RT in the assay buffer containing 25 mM NaAC and 100 mM NaCl, pH 4.5. […] The samples were incubated with the stopping buffer at RT for 1 hr to allow the fluorescent product to be formed. […] Data were collected and used to determine the IC50 values of compounds by curve fitting to the four-parameter inhibition equation.

Structure (SMILES) | solubility [1] [µg/mL] | IC50 ([2]; read-out: IC50 hACR) [nM] | IC50 ([2]; IC50 hACR) [nM]
COc1ccc(-c2cn(C(=O)NC3CCCCC3)cn2)cn1 [Example 62, N-Cyclohexyl-4-(6-methoxypyridin-3-yl)-1H-imidazole-1-carboxamide] | 0.6 (≈ 2 µM) | > 1000 | –
CCOc1nc(-c2ccccn2)cn1C(=O)NCCC1CC1 [Example 63, N-(2-Cyclopropylethyl)-2-ethoxy-4-(pyridin-2-yl)-1H-imidazole-1-carboxamide] | 24.1 (≈ 80.2 µM) | > 1000 | –
CCOc1nc(-c2cccnc2)cn1C(=O)NCCC1CC1 [Example 64, N-(2-Cyclopropylethyl)-2-ethoxy-4-(pyridin-3-yl)-1H-imidazole-1-carboxamide] | 16.8 (≈ 55.9 µM) | > 1000 | –
CC(C)Oc1nc(-c2cccnc2)cn1C(=O)NCCC1CC1 [Example 65, N-(2-Cyclopropylethyl)-2-isopropoxy-4-(pyridin-3-yl)-1H-imidazole-1-carboxamide] | 25 (≈ 79.5 µM) | 200 to 1000 | –
O=C(NCCC1CC1)n1cc(-c2cccnc2)nc1OC1CC1 [Example 66, 2-Cyclopropoxy-N-(2-cyclopropylethyl)-4-(pyridin-3-yl)-1H-imidazole-1-carboxamide] | 25 (≈ 80 µM) | > 1000 | –
CCOc1nc(-c2cccnc2)cn1C(=O)NCCC(C)C [Example 67, 2-Ethoxy-N-iso-pentyl-4-(pyridin-3-yl)-1H-imidazole-1-carboxamide] | 8 (≈ 26.5 µM) | > 1000 | –
CCOc1nc(-c2ccc(OC)nc2)cn1C(=O)NCCC1CC1 [Example 68, N-(2-Cyclopropylethyl)-2-ethoxy-4-(6-methoxypyridin-3-yl)-1H-imidazole-1-carboxamide] | 2 (≈ 6.05 µM) | > 1000 | –
O=C(NCCC1CC1)n1cnc(-c2cscn2)c1 [Example 69, N-(2-Cyclopropylethyl)-4-(thiazol-4-yl)-1H-imidazole-1-carboxamide] | 32 (≈ 122 µM) | 200 to 1000 | –
COc1ccc(-c2cn(C(=O)NCCC3CC3)cn2)cn1 [Example 70, N-(2-Cyclopropylethyl)-4-(6-methoxypyridin-3-yl)-1H-imidazole-1-carboxamide] | 1.3 (≈ 4.54 µM) | 200 to 1000 | –
O=C(NCCC1CC1)n1cnc(-c2ccns2)c1 [Example 72, N-(2-Cyclopropylethyl)-4-(iso-thiazol-5-yl)-1H-imidazole-1-carboxamide] | 22 (≈ 83.9 µM) | 200 to 1000 | –
Cc1nc(-c2cn(C(=O)NCCC3CC3)cn2)co1 [Example 73, N-(2-Cyclopropylethyl)-4-(2-methyloxazol-4-yl)-1H-imidazole-1-carboxamide] | 26 (≈ 99.9 µM) | 200 to 1000 | –
O=C(NCCC1CC1)n1cnc(-n2ccc(F)n2)c1 [Example 74, N-(2-Cyclopropylethyl)-4-(3-fluoro-1H-pyrazol-1-yl)-1H-imidazole-1-carboxamide] | 34 (≈ 129 µM) | > 1000 | –
COc1nc(C(C)C)cn1C(=O)NCCC(C)C [Example 76] | 20 (≈ 78.9 µM) | 200 to 1000 | –
COc1nccn1C(=O)NCCC(C)C [Example 78, N-iso-pentyl-2-methoxy-1H-imidazole-1-carboxamide] | 28 (≈ 133 µM) | 200 to 1000 | –
COc1nc(C(C)(C)C#N)cn1C(=O)NCCC(C)C [Example 81, 4-(2-Cyanopropan-2-yl)-N-iso-pentyl-2-methoxy-1H-imidazole-1-carboxamide] | 23 (≈ 82.6 µM) | > 1000 | –
COc1nc(C2(C)CCC(=O)N2C)cn1C(=O)NCCC(C)C (stereo not drawn) [Example 82, 4-(1,2-Dimethyl-5-oxopyrrolidin-2-yl)-N-iso-pentyl-2-methoxy-1H-imidazole-1-carboxamide] | 31 (≈ 96.2 µM) | > 1000 | –
COc1nc(-c2cccnn2)cn1C(=O)NCCC(C)C [Example 83, N-iso-Pentyl-2-methoxy-4-(pyridazin-3-yl)-1H-imidazole-1-carboxamide] | 33 (≈ 114 µM) | 200 to 1000 | –
COc1nc(C2CCCO2)cn1C(=O)NCCC(C)C (stereo not drawn) [Example 84, N-iso-pentyl-2-methoxy-4-(tetrahydrofuran-2-yl)-1H-imidazole-1-carboxamide] | 25 (≈ 88.9 µM) | > 1000 | –
COc1nc(C(C)(C)C)cn1C(=O)NCC(C)C [Example 86, 4-(tert-Butyl)-N-iso-butyl-2-methoxy-1H-imidazole-1-carboxamide] | 15 (≈ 59.2 µM) | 200 to 1000 | –
CC(C)CNC(=O)n1cnc(C(C)(C)C)c1 [Example 87, 4-(tert-Butyl)-N-iso-butyl-1H-imidazole-1-carboxamide] | 17 (≈ 76.1 µM) | 200 to 1000 | –
COc1nc(C(C)(C)C)cn1C(=O)NC1CCCCC1 [Example 93, 4-(tert-Butyl)-N-cyclohexyl-2-methoxy-1H-imidazole-1-carboxamide] | 8 (≈ 28.6 µM) | 200 to 1000 | –
COc1ccc(-c2cn(C(=O)NCCC3(C(F)(F)F)CC3)c(OC)n2)cn1 [Example 94, 2-Methoxy-4-(6-methoxypyridin-3-yl)-N-(2-(1-(trifluoromethyl)cyclopropyl)ethyl)-1H-imidazole-1-carboxamide] | 6 (≈ 15.6 µM) | 200 to 1000 | –
COc1nc(C(C)(C)C)cn1C(=O)NCCCC1(C(F)(F)F)CC1 [Example 96, 4-(tert-Butyl)-2-methoxy-N-(3-(1-(trifluoromethyl)cyclopropyl)propyl)-1H-imidazole-1-carboxamide] | 12 (≈ 34.5 µM) | < 200 | –
COc1nc(C(C)(C)C)cn1C(=O)NCCCCC1CC1 [Example 97, 4-(tert-Butyl)-N-(4-cyclopropylbutyl)-2-methoxy-1H-imidazole-1-carboxamide] | 3 (≈ 10.2 µM) | < 200 | –
COc1nc(C(C)(C)C)cn1C(=O)NC1CCCC(F)(F)C1 (stereo not drawn) [Example 99, 4-(tert-Butyl)-N-(3,3-difluorocyclohexyl)-2-methoxy-1H-imidazole-1-carboxamide] | 14 (≈ 44.4 µM) | > 1000 | –
CCC(C)(C)c1cn(C(=O)NCCC(C)C)c(OC)n1 [Example 100, N-iso-Pentyl-2-methoxy-4-(tert-pentyl)-1H-imidazole-1-carboxamide] | 14 (≈ 49.8 µM) | – | 200 to 1000
COc1nc(C(C)(C)C)cn1C(=O)NCCCc1ccccc1 [Example 101, 4-(tert-Butyl)-2-methoxy-N-(3-phenylpropyl)-1H-imidazole-1-carboxamide] | 10 (≈ 31.7 µM) | < 200 | –

Second part, led by results:

solubility [1] [µg/mL] | IC50 ([2]; read-out: IC50 hACR) [nM] | Structure (SMILES) | IC50 ([2]; IC50 hACR) [nM]
23 (≈ 76.1 µM) | 200 to 1000 | CSc1nc(-c2cccnc2)cn1C(=O)NCCC1CC1 [Example 67a] | –
22 (≈ 62.1 µM) | < 200 | COc1ccc(-c2cn(C(=O)NCCC3(C(F)(F)F)CC3)cn2)cn1 [Example 71, 4-(6-Methoxypyridin-3-yl)-N-(2-(1-(trifluoromethyl)cyclopropyl)ethyl)-1H-imidazole-1-carboxamide] | –
13 (≈ 46.5 µM) | 200 to 1000 | COc1nc(C2CCCC2)cn1C(=O)NCCC(C)C [Example 75, 4-Cyclopentyl-N-iso-pentyl-2-methoxy-1H-imidazole-1-carboxamide] | –
23 (≈ 96.1 µM) | 200 to 1000 | CCc1cn(C(=O)NCCC(C)C)c(OC)n1 [Example 77, 4-Ethyl-N-iso-pentyl-2-methoxy-1H-imidazole-1-carboxamide] | –
11 (≈ 43.8 µM) | < 200 | CC(C)CC(C)NC(=O)n1cnc(C(C)(C)C)c1 (stereo not drawn) [Example 79, 4-(tert-Butyl)-N-(4-methylpentan-2-yl)-1H-imidazole-1-carboxamide] | –
0.2 (≈ 0.706 µM) | < 200 | CSc1nc(C(C)(C)C)cn1C(=O)NCCC(C)C [Example 80, 4-(tert-Butyl)-N-iso-pentyl-2-(methylthio)-1H-imidazole-1-carboxamide] | –
28 (≈ 99.5 µM) | 200 to 1000 | COc1nc(C2CCOC2)cn1C(=O)NCCC(C)C (stereo not drawn) [Example 85, N-iso-Pentyl-2-methoxy-4-(tetrahydrofuran-3-yl)-1H-imidazole-1-carboxamide] | –
17 (≈ 51 µM) | 200 to 1000 | COc1nc(C(C)(C)C)cn1C(=O)NCCC1(C(F)(F)F)CC1 [Example 90, 4-(tert-Butyl)-2-methoxy-N-(2-(1-(trifluoromethyl)cyclopropyl)ethyl)-1H-imidazole-1-carboxamide] | –
22 (≈ 71.6 µM) | 200 to 1000 | COc1nc(C(C)(C)C)cn1C(=O)NCCCC(F)(F)F [Example 91, 4-(tert-Butyl)-2-methoxy-N-(4,4,4-trifluorobutyl)-1H-imidazole-1-carboxamide] | –
12 (≈ 43 µM) | 200 to 1000 | CCOc1nc(C(C)(C)C)cn1C(=O)NCCC1CC1 [Example 92, 4-(tert-Butyl)-N-(2-cyclopropylethyl)-2-ethoxy-1H-imidazole-1-carboxamide] | –
12 (≈ 43 µM) | < 200 | COc1nc(C(C)(C)C)cn1C(=O)NCCCC1CC1 [Example 95, 4-(tert-Butyl)-N-(3-cyclopropylpropyl)-2-methoxy-1H-imidazole-1-carboxamide] | –
5 (≈ 18 µM) | < 200 | COc1nc(C(C)(C)C)cn1C(=O)NCC#CC(C)C [Example 98, 4-(tert-Butyl)-2-methoxy-N-(4-methylpent-2-yn-1-yl)-1H-imidazole-1-carboxamide] | –
